Columns and labels:
[1] = test system: human exocrine (acinar and ductal) cells; assay: qRT-PCR gene expression in human exocrine (acinar and ductal) cells from a non-diabetic donor; format: cell-based; conditions: 48 hours: GSK126 10 μM, CPI-1205 5 μM, ursolic acid 5 μM, GSK343 5 μM, EPZ-6438 5 μM
Description: (§1) Exocrine cells from a non-diabetic human and a marmoset were cultured and assayed in Miami/CMRL medium. The human exocrine cells were sourced from the Islet Transplant Unit of St Vincent's Institute for Medical Research. The marmoset exocrine cells were sourced from the Australian Regenerative Medicine Institute (ARMI), Monash University. Miami media is based on CMRL 1066 media (Connaught Medical Research Lab) supplemented with: Insulin, Transferrin & Selenium (ITS), human serum, Vitamin E, sodium pyruvate, zinc and HEPES. Pharmacological inhibition of EZH2 and gene expression analysis were performed as described in Example 1.

[2] = test system: H3K27me3 or H3K9/14ac content at the promoters of INS-IGF2, NGN3 and PDX1 in human pancreatic ductal epithelial cells; assay: Quantitative PCR chromatin immunoprecipitation (q-PCR ChIP) after 2- and 7-day stimulation; format: cell-based; conditions: 7 days (FIG. 12c)
Description: Approximately 5×10^6 cells were fixed in 1% formaldehyde for 10 minutes, with a further 10-minute incubation in 0.125M glycine to quench the cross-linking reaction. The fixed cell pellet was lysed following resuspension and homogenization in sodium dodecyl (lauryl) sulphate (SOS) lysis buffer (1% SOS, 10 mM EDTA, 50 mM Tris-HCl pH 8.1) with a protease inhibitor cocktail (Roche Diagnostics GmBH, Mannheim, Germany) included. Samples were incubated on ice for 5 minutes following which sonication was performed to shear chromatin between 200-600 bp. Sonicated chromatin was resuspended in ChIP Dilution Buffer (0.01% SOS, 1.1% Triton X-100, 1.2 mM EDTA, 16.7 mM Tris-HCl pH 8.0 and 167 mM NaCl). 20 μl of DynabeadsR Protein A (Invitrogen, Carlsbad, CA, USA) was added to each sample and pre-cleared. Overnight incubation at 4° C. with H3K27me3 or H3K9/14ac antibody was used for immunoprecipitation of chromatin, as previously described. Immunoprecipitates were collected by magnetic isolation and washed sequentially with low salt and high salt buffers. Immunoprecipitated DNA was then eluted from solution with 0.1 M NaHCO3 containing 1% SIDS. Protein-DNA cross-links were reversed by incubation of samples in Proteinase K (Sigma, St. Louis, MO, USA) for 2 hours at 62° C. DNA was purified using a Qiagen MinElute column (Qiagen Inc., Valencia, CA, USA). H3K27me3 or H3K9/14ac content at the promoters of the INS-IGF2, NGN3 and PDX1 genes were assessed by qPCR using primers designed from the integrative ENCODE resource.

EZH2 = target: T1, EZH2 (Homo sapiens, UniProt Q15910); conditions: assay of methylation activity as described in the cited paper for each compound; cited from earlier work
T1 construct: Flag

[3] = test system: Human pancreatic ductal epithelial cells; assay: Glucose stimulated insulin secretion assay (ELISA); format: cell-based
Description: 5×10^5 cells were seeded in 12-well plates and allowed to adhere for 24 hours. […] Next, cells were cultured in 28 mM (High) glucose Krebs Buffer solution and incubated for 1 hour to obtain the glucose stimulated insulin secretion. Supernatant was collected and Ultrasensitive Insulin ELISA (Mercodia) was used to determine the concentration of insulin according to manufacturer's instructions. Fold change of insulin secreted by cells were calculated by adjusting to cells stimulated with EZH2 inhibitors for insulin concentrations compared to control.

[4] = test system: Human pancreatic ductal epithelial cells; assay: qRT-PCR after 2- and 7-day EZH2 inhibitor stimulation of human pancreatic ductal epithelial cells; format: cell-based; conditions: GSK-126 10 μM, Triptolide 20 nM
Description: Human pancreatic ductal epithelial cells were purchased from AddexBio and cultured according to the recommended protocols. Cells were cultured in complete Keratinocyte Serum-Free Media (supplemented with human recombinant EGF, Bovine Pituitary Extract and Antibiotic-Antimycotic [Gibco]. All cell cultures were grown and maintained in a 37° C., 5% C02 environment using a tissue culture incubator. Once cells reached 70-80% confluency, passaging was performed using 0.05% Trypsin EDTA (Sigma). […] Vehicle control was DMSO. Cells were treated over 2 main timepoints, with harvests occurring following 2, and 7 days. For the 2-day time point, cells were seeded and left to adhere in plates for 24 hours. Treatment was initiated with the first dose made up in complete K-SFM. The second dose was delivered 24 hours later following a media change. For the longer period of 7 days, cells were initially seeded in 10 cm plates, with doses delivered on alternate days following the initial period of 24 hours. […] Ct values of experimental genes were normalized to housekeeping gene [MUT]. Fold change of mRNA abundance was calculated by normalizing drug treated values to vehicular controls. […] RNA was isolated using the RNeasy Kit according to the manufacturer's directions. Following measurement of RNA concentration using a QIAxpert System, 1 μg of RNA was used for cDNA synthesis by a high-capacity cDNA Reverse Transcription Kit (Applied Biosystems). The resulting cDNA reaction mix was diluted 1:6 to make up the final template cDNA used subsequently. […] Ct values of experimental genes were normalized to housekeeping gene [MUT]. Fold change of mRNA abundance was calculated by normalizing drug treated values to vehicular controls.

[5] = test system: marmoset exocrine (acinar and ductal) cells; assay: qRT-PCR gene expression in marmoset exocrine (acinar and ductal) cells; format: cell-based; conditions: 48 hours: GSK126 10 μM, ursolic acid 5 μM
Description: as §1

[6] = test system: Human immortalised ductal cell line; assay: qRT-PCR gene expression in human immortalised ductal cell line; format: cell-based; conditions: ursolic acid 1, 2.5 or 5 μM; GSK126 5, 10 or 20 μM
Description: Human immortalised ductal cell line (Catalog #: T0018001, Addexbio) was cultured and assayed in Keratinocyte SFM (serum-free medium) (Catalog number 17005042, ThermoFisher Scientific, USA). Pharmacological inhibition of EZH2 and gene expression analysis were performed as described in Example 1.

T1 sequence (Q15910 whole entry): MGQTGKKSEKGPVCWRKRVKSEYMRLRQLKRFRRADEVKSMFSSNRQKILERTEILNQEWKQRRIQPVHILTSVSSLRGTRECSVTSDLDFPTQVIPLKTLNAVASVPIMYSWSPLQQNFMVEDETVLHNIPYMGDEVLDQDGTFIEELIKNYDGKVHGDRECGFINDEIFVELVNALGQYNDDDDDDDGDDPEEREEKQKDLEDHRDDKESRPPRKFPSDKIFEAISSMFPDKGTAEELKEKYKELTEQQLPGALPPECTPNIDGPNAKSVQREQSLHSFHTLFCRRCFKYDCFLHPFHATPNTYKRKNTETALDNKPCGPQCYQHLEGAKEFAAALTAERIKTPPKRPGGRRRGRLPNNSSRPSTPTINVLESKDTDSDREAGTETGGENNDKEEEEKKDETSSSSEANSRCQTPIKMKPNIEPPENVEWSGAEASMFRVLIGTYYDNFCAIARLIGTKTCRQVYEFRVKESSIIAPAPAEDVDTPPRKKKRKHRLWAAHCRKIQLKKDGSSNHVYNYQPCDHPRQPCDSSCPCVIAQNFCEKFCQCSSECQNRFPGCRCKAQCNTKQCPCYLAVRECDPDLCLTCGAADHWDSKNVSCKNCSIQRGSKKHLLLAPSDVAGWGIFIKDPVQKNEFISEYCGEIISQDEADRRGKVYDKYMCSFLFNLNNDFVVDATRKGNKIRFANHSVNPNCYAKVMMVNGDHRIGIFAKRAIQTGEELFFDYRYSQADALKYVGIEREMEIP
T1 sequence (O75530 whole entry partner): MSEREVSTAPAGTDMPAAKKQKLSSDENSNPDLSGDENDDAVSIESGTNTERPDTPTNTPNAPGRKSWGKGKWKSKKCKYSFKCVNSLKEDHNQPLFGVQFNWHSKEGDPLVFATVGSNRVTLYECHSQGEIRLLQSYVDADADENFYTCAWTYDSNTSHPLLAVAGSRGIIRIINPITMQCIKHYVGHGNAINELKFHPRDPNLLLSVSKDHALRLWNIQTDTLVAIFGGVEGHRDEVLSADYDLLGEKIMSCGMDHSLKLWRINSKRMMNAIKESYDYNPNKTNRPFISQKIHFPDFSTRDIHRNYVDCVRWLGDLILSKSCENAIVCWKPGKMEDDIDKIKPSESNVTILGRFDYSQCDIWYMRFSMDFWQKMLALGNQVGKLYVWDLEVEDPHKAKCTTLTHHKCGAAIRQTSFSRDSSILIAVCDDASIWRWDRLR
T1 sequence (Q15022 whole entry partner): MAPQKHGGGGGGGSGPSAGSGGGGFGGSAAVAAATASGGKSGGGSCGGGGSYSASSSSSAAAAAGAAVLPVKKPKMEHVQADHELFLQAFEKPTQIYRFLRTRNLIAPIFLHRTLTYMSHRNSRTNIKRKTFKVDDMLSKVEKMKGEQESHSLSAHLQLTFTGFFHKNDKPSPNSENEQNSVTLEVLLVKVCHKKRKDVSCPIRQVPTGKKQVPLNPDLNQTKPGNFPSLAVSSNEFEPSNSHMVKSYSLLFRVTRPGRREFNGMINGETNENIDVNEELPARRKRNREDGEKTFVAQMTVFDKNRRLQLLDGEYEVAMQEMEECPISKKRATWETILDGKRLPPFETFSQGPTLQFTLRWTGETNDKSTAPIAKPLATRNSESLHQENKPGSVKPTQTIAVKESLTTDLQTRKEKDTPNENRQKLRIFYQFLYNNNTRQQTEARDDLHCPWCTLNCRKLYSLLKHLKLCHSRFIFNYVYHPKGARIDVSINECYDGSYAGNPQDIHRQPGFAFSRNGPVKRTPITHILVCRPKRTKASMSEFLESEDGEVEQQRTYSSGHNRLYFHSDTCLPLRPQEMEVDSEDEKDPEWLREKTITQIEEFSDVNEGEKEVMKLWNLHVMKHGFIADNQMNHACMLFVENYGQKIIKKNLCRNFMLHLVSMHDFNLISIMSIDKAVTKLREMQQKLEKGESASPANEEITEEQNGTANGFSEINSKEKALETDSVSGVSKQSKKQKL
T1 sequence (Q6ZN18 whole entry partner): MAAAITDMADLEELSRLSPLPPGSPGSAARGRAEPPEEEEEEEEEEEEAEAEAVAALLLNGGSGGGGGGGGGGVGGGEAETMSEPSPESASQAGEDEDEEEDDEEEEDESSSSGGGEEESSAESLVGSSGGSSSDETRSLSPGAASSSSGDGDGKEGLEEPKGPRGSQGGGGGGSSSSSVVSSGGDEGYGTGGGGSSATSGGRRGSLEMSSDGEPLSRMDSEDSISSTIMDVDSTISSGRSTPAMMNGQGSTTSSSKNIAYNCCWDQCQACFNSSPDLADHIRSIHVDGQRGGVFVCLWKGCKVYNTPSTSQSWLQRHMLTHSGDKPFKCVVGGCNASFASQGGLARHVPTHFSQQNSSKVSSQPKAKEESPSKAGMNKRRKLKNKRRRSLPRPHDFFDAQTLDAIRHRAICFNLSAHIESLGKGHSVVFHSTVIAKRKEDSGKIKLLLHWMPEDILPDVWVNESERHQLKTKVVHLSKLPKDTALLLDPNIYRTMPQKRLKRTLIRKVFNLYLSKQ
T1 sequence (Q09028 whole entry partner): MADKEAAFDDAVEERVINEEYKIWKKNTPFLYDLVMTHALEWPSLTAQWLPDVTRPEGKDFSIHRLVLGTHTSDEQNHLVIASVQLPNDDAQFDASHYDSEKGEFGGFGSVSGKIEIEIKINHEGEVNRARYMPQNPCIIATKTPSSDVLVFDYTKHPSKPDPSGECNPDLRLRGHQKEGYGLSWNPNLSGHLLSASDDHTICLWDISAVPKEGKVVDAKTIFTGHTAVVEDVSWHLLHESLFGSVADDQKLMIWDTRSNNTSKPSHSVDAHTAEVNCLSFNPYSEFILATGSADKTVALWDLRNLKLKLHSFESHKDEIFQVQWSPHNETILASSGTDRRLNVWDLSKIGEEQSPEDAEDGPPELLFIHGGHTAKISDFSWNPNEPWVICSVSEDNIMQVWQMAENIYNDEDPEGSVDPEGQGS

For `COc1cc(C)[nH]c(=O)c1CNC(=O)c1c(C)n([C@H](C)C2CCN(CC(F)(F)F)CC2)c2ccccc12` [CPI-1205, N-[(1,2-Dihydro-4-methoxy-6-methyl-2-oxo-3-pyridinyl)methyl]-2-methyl-1-[(1R)-1-[1-(2,2,2-trifluoroethyl)-4-piperidinyl]ethyl]-1H-indole-3-carboxamide], the “mRNA expression of Insulin, Pdx1 and Ngn3” value (shortened to “mRNA expression of Insulin”) [1] was “stimulated expression of one, two or all of Insulin, Pdx1 and Ngn3”.

For `CCN(c1cc(-c2ccc(CN3CCOCC3)cc2)cc(C(=O)NCc2c(C)cc(C)[nH]c2=O)c1C)C1CCOCC1` [EPZ-6438, N-[(1,2-Dihydro-4,6-dimethyl-2-oxo-3-pyridinyl)methyl]-5-[ethyl(tetrahydro-2H-pyran-4-yl)amino]-4-methyl-4′-(4-morpholinylmethyl)[1,1′-biphenyl]-3-carboxamide], the “H3K27me3 content of PDX1” value [2] was “reduced” and the “mRNA expression of Insulin” value [1] was “stimulated expression of one, two or all of Insulin, Pdx1 and Ngn3”.

For `CCCc1cc(C)[nH]c(=O)c1CNC(=O)c1cc(-c2ccnc(N3CCN(C)CC3)c2)cc2c1cnn2C(C)C` [GSK343, N-[(1,2-Dihydro-6-methyl-2-oxo-4-propyl-3-pyridinyl)methyl]-1-(1-methylethyl)-6-[2-(4-methyl-1-piperazinyl)-4-pyridinyl]-1H-indazole-4-carboxamide], the IC50 (EZH2) is listed as 4 nM and the “mRNA expression of Insulin” value [1] is listed as “stimulated expression of one, two or all of Insulin, Pdx1 and Ngn3”.

With `CC(C)[C@]12O[C@H]1[C@@H]1O[C@]13[C@]1(O[C@H]1C[C@H]1C4=C(CC[C@@]13C)C(=O)OC4)[C@@H]2O` [Triptolide, (3bS,4aS,5aS,6R,6aR,7aS, 7bS,8aS,8bS)-3b,4,4a,6,6a,7a,7b,8b,9,10-Decahydro-6-hydroxy-8b-methyl-6a-(1-methylethyl)trisoxireno[4b,5: 6,7:8a,9]phenanthro[1,2-c]furan-1(3H)-one] the “insulin concentration after incubation in high-glucose media (28 mM glucose, 1 hour)” value ([3]; 2-day stimulation (FIG. 13d), GSK126 10 μM, EPZ6438 1 μM, Triptolide 20 nM, not observed in DMSO control) was “significant elevations”, the “Release of insulin (glucose stimulated)” value ([3]; 7 days stimulation (FIG. 13e)) was “maintained” and the “MAFA mRNA levels” value ([4]; 2-day point) was “increased in a statistically significant manner”. The CK19 expression ([4]; 2 days, EPZ6438 1 μM) was “statistically significant decreases”, the “NGN3 mRNA levels” value ([4]; 2 days, EPZ6438 1 μM) was “significantly elevated” and the “insulin transcripts, mature mRNA (INS)” value ([4]; 2 days, EPZ6438 1 μM) was “elevations”. For the same compound, the “insulin transcripts, unprocessed heterogenous nuclear form (INS hnRNA)” value ([4]; 2 days, EPZ6438 1 μM) was “elevations”, the “NGN3 mRNA levels” value ([4]; 7 days, EPZ6438 1 μM) was “Further increases” and the “insulin transcripts, mature mRNA (INS)” value ([4]; 7 days, EPZ6438 1 μM) was “even further increases”. For the same compound, the “insulin transcripts, unprocessed heterogenous nuclear form (INS hnRNA)” value ([4]; 7 days, EPZ6438 1 μM) was “even further increases”.

With `C[C@H]1[C@H](C)CC[C@]2(C(=O)O)CC[C@]3(C)C(=CC[C@@H]4[C@@]5(C)CC[C@H](O)C(C)(C)[C@@H]5CC[C@]43C)[C@H]12` [Ursolic acid, 3β-Hydroxyurs-12-en-28-oic acid] the “Insulin mRNA expression” value [5] was “stimulated expression”, the “Pdx1 mRNA expression” value [5] was “stimulated expression” and the “Insulin mRNA expression” value [6] was “stimulated expression”. The “Ngn3 mRNA expression” value [6] was “stimulated expression”, the “Pdx1 mRNA expression” value [6] was “stimulated expression” and the “mRNA expression of Insulin” value [1] was “stimulated expression of one, two or all of Insulin, Pdx1 and Ngn3”.
